Assay results taken from patent publication US5658913A, “Chemopreventive compounds and a preparation method and use thereof” (Kim; Nak Doo, priority 1993, dated 1997).

How the values were obtained:
[1] = system: p-nitrophenol hydroxylase; experiment: p-Nitrophenol hydroxylase activity of hepatic microsomes (Experimental Example 1(2-1)); assay type: in vivo, Sprague-Dawley rat; conditions: 200 mg/kg
Description: In order to examine the effect of the compound of the present invention on the activity of the enzymes involved in phase I reaction, the experiments were carried out as follows:
(§1) Six groups of Sprague-Dawley rat weighing 190±30 g were administered with pyrazine(Groups 1 to 3) or the compound prepared in Example 1-1(Groups 4 to 6) in a dose of 200 mg/kg for 1, 2 or 3 days. After the hepatic microsomes were separated by following the same procedure as in the above (1), activity of p-nitrophenol hydrolase was measured according to the method of Koop(Dennis R. Koop, Hydroxylation p-nitrophenol by rabbit ethanol inducible cytochrome P-450 isozyme 3a, Molecular Pharmacol. 29, 399-404(1986)).
(§2) Thus, 1 mg of microsomes and 1mM p-nitrophenol were added to 0.6 ml of 0.1M potassium phosphate buffer(pH 6.8) to make the total volume of 0.9 ml. The resulting mixture was preliminarily reacted in a 37° C. incubator for 2 minutes and started to react while adding 1 mM NADPH(0.1 ml). After 3 minutes, 0.5 ml of 0.6N perchloric acid was added to develop a color and the absorbance at 546 nm was measured at once. The enzyme activity was expressed in terms of mole concentration of 4-nitrocatechol, the product of reaction for 1 minute.

[2] = system: microsomal epoxide hydrolase (mEH); experiment: Western blot analysis for microsomal epoxide hydrolase (Experimental Example 3(1)); assay type: in vivo, Sprague-Dawley rat; conditions: 200 mg/kg i.p. for 1, 2 or 3 days; FIG. 6
Description: The hepatic microsomes were separated and subjected to SDS-polyacrylamide gel electrophoresis by following the same procedure as in the above Experimental Example 1(1). Thereafter, western blot analysis for microsomal epoxide hydrolase(mEH) was carried out as follows:
Streptavidine-horseradish peroxidase and 4-chloro-1-naphtol were added to the reaction mixture to develop a color.

[3] = system: aniline hydroxylase; experiment: Aniline hydroxylase activity of hepatic microsomes (Experimental Example 1(2-2)); assay type: in vivo, Sprague-Dawley rat; conditions: 200 mg/kg
Description: as §1
The same procedure as in the above (2-1) was carried out to measure the activity of aniline hydroxylase. The activity of aniline hydroxylase was measured according to the method of Mieyal(John J. Mieyal, Acceleration of the autooxidation of human oxyhemoglobin by aniline and its relation to hemoglobin-catalyzed aniline hydroxylation, J. Biol. Chem. 251, 3442-3446(1976)).
(§3) Thus, 1 mg of microsomes and 5 mM aniline were added to 0.6 ml of 0.1M potassium phosphate buffer(pH 6.8) to make the total volume of 0.9 ml. 1 mM NADPH was added to make the total volume of 1.0 ml and the resulting mixture was reacted at 37° C. After 10 minutes, 20% trichloroacetic acid was added to stop the reaction and the reaction mixture was centrifuged. To 1 ml of supernatant were added 0.1 ml of 5% phenol and 0.1 ml of 2.5N sodium carbonate, dissolved in 0.1N NaOH. The mixture was allowed to stand for 30 minutes to develop a color and the absorbance at 630 nm was measured at once. The enzyme activity was expressed in terms of mole concentration of 4-aminophenol, the product of reaction for 1 minute.

[4] = system: N-nitrosodimethylamine demethylase; experiment: N-Nitrosodimethylamine demethylase activity of hepatic microsomes (Experimental Example 1(2-3)); assay type: in vivo, Sprague-Dawley rat; conditions: 200 mg/kg, 1 to 3 days, time-dependent
Description: as §1
The same procedure as in the above (2-1) was carried out to measure the activity of N-nitrosodimethyl demethylase. The activity of N-nitrosodimethyl demethylase was measured according to the method of Kaul and Novak(Kaul, L. L. and Novak, R. F., Induction of rabbit hepatic microsomal cytochrome P-450 by imidazole; enhanced metabolic activity and altered substrate specificity, Arch. Biochem. Biophys., 235, 470-481(1984)).
Thus, 10 mM N-Nitrosodimethylamine and 0.6 ml of 0.1M potassium phosphate buffer(pH 7.4) were added to 1 mg of microsomes, and 1 mM NADPH was added to make the total volume of 1 ml. After the mixture was reacted at 37° C. for 30 minutes, 20% trichloroacetic acid was added to stop the reaction and the reaction mixture was centrifuged. […] The mixture was allowed to stand at 37° C. for 45 minutes to develop a color and the absorbance at 412 nm was measured. […]

[5] = system: aniline hydroxylase; experiment: Aniline hydroxylase activity in combination with INAH (Experimental Example 2(2)); assay type: in vivo, Sprague-Dawley rat
Description: as §3
(§4) In order to examine the effect of the compound of the present invention on the activity of the enzymes involved in phase I reaction when administered in combination with INAH, the experiments were carried out as follows:
(§5) Eight groups of Sprague-Dawley rat weighing 190±30 g were intraperitoneally administered with INAH(Group 1), or INAH plus the compounds of Examples 2 to 8(Groups 2 to 8), each in a dose of 200 mg/kg. The inventive compounds and INAH were diluted with corn oil and PBS respectively, and the test compounds were administered just after administering INAH.
(§6) The changes in the activity of p-nitrophenol hydroxylase and aniline hydroxylase were measured by following the same procedure as in Experimental Example 1(2-1) and (2-2). The activity of enzymes was determined by considering the activity of enzyme when INAH alone was administered as 100%.

[6] = system: p-nitrophenol hydroxylase; experiment: p-Nitrophenol hydroxylase activity in combination with INAH (Experimental Example 2(2)); assay type: in vivo, Sprague-Dawley rat; conditions: INAH alone = 100%; INAH plus compound, each 200 mg/kg i.p.
Description: as §2, §4, §5, §6

[7] = system: Glutathion S-transferase (GST); experiment: GST activity, administered alone or in combination with INAH (Experimental Example 4(2)); assay type: in vivo, Sprague-Dawley rat
Description: Thus, to 25 μg(0.1 ml) of cytosol protein were added 0.1 mM […] and 1.0 mM glutathione as substrates, and 0.1M potassium phosphate were added to make the total volume of 1.0 ml(pH 6.4). The resulting mixture was allowed to stand at room temperature for 2 minutes and measured for its absorbance at 340 nm at intervals of 15 seconds during the period of 1 minute. As a reference, a cytosol protein denatured by heating was used. The activity of GST was calculated by measuring the change of absorbance for the period of 1 minute and employing the extinction coefficient of 9.6 mM^-1 cm^-1.
In order to examine the effect of the compound of the present invention on the activity of the enzymes involved in phase II reaction when administered alone or in combination with INAH, the experiments were carried out as follows:
Sixteen groups of Sprague-Dawley rat weighing 190±30 g were intraperitoneally administered with corn oil(Group 1), compounds of Examples 2 to 8(Groups 2 to 8), INAH(Group 9), or INAH plus the compounds of Examples 2 to 8(Groups 10 to 16), each in a dose of 200 mg/kg. The inventive compounds and INAH were diluted with corn oil, and the test compounds were administered just after administering INAH.
The change in the activity of GST was measured by following the same procedure as in Experimental Example 3(2). The activity of enzyme was determined by considering the activity of enzyme when corn oil or INAH alone was administered as 100%.

[8] = system: P450 2E1; experiment: Immunoblot analysis of P-450 2E1 expression when administered together with INAH (Experimental Example 2(1)); assay type: in vivo, Sprague-Dawley rat; conditions: 200 mg/kg i.p. plus INAH 200 mg/kg; FIG. 5
Description: To the first group as a control group, corn oil was administered intraperitoneally in an amount of 0.1 ml/200 g body weight. The second group was administered intraperitoneally INAH diluted with PBS in a dose of 200 mg/kg body weight. […] The hepatic microsomes were separated and subjected to Western blot analysis on SDS-PAGE by following the same procedure as in the above Experimental Example 1 (1).

[9] = system: p-nitrophenol hydroxylase; experiment: p-Nitrophenol hydroxylase activity in combination with INAH (Experimental Example 2(2)); assay type: in vivo, Sprague-Dawley rat
[10] = system: cancers; conditions: literature; cited from earlier work
[11] = system: enzymes involved in phase II reactions; conditions: literature; cited from earlier work
[12] = system: cytochrome P-450 2E1; conditions: cited from earlier work; for effect on cytochrome P-450 2E1 expression: literature / inventors' submitted paper
[13] = INAH 200 mg/kg i.p., alone or plus compound 200 mg/kg
[14] = INAH plus compound, each 200 mg/kg i.p., in words

C=CCSc1cnccn1 [Example 1-1, 2-(2-propenylthio)pyrazine]
decrease in activity of p-nitrophenol hydrolase compared to pyrazine groups ([1]; 1 day): 64%
decrease in activity of p-nitrophenol hydrolase compared to pyrazine groups ([1]; 2 days): 73%
decrease in activity of p-nitrophenol hydrolase compared to pyrazine groups ([1]; 3 days): 82%
expression of mEH compared to control or pyrazine groups [2]: significant increase in the expression of mEH
decrease in activity of aniline hydroxylase compared to pyrazine groups ([3]; 1 day): 57%
decrease in activity of aniline hydroxylase compared to pyrazine groups ([3]; 2 days): 80%
decrease in activity of aniline hydroxylase compared to pyrazine groups ([3]; 3 days): 88%
decrease in activity of N-nitrosodimethylamine demethylase compared to pyrazine groups [4]: 49-73%

C=CC(C)Sc1cnccn1 (stereo not drawn) [Example 8]
Aniline hydroxylase, Amount [5, 13]: 0.659 nmol/min/mg protein
Aniline hydroxylase, Activity ([5]; INAH alone = 100%, INAH plus compound, each 200 mg/kg i.p.): 45%
inhibition of expression of aniline hydroxylase induced by INAH [5, 14]: superior inhibitory action
p-Nitrophenol hydrolase, Activity [6]: 40%
Glutathion S-transferase, Amount ([7]; INAH alone or INAH plus compound, each 200 mg/kg i.p.): 2.808 nmol/min/mg protein
Glutathion S-transferase, Activity ([7]; INAH plus compound, each 200 mg/kg i.p., INAH alone = 100%): 140%
induction of expression of glutathione S-transferase when INAH is administered ([7]; INAH plus compound, in words): strongly induce expression of enzyme
Glutathion S-transferase, Amount ([7]; compound alone, 200 mg/kg i.p.): 3.290 nmol/min/mg protein
increase of expression of glutathione S-transferase ([7]; compound alone, 200 mg/kg i.p., Table 3): ≥ 70%
Glutathion S-transferase, Activity ([7]; compound alone, 200 mg/kg i.p., corn oil = 100%): 181%
suppression of enzyme (P450 2E1) expression induced by INAH [8]: strongest suppression
p-Nitrophenol hydrolase, Amount [9, 13]: 2.33 nmol/min/mg protein
inhibition of expression of p-nitrophenol hydroxylase induced by INAH [9, 14]: superior inhibitory action

Cc1c(-c2cnccn2)ssc1=S [Oltipraz]
cancer suppression [10]: can suppress lung and stomach cancers
induction of enzymes involved in phase II reactions [11]: ability of inducing enzymes of phase II reactions

C=CCSCC=C [allylsulfide, diallylsulfide]
cancer suppression [10]: strongly suppress liver and colon cancers
suppression of cytochrome P-450 2E1 induced by pyrazine ([12]; inventors' submitted paper): completely suppress cytochrome P-450 2E1 induced by the action of pyrazine
effect on cytochrome P-450 2E1 expression [12]: strongly inhibits the expression of cytochrome P-450 2E1

c1cnccn1 [pyrazine]
effect on cytochrome P-450 2E1 expression [12]: inducing cytochrome P-450 2E1
